# Assay results published in the NIST ThermoML archive (doi:10.1021/je050343i).
# ± gives the expanded uncertainty stated by the source.
# Assay: activity coefficient (dimensionless); of the first substance listed, at infinite dilution; xn = mol fraction of the nth substance listed
# Conditions: 249.92 K; Liquid; Chromatography; x1 = 0
row,activity coefficient,SMILES
1,3.57 ± 0.24,C=CCC [1-butene] + C=C(C)CCO
2,5.27 ± 0.36,CC(C)C [2-methylpropane] + C=C(C)CCO
3,3.49 ± 0.24,C=C(C)C [2-methylpropene] + C=C(C)CCO
4,3.55 ± 0.24,C/C=C/C [(E)-2-butene] + C=C(C)CCO
5,4.89 ± 0.33,CCCC [butane] + C=C(C)CCO
6,4.36 ± 0.3,CCC [propane] + C=C(C)CCO
7,3.07 ± 0.21,C=CC [propene] + C=C(C)CCO

row,SMILES,activity coefficient
1,"C=CC=C [1,3-butadiene] + C=C(C)CCO",2.76 ± 0.19

# Same assay, conditions: 249.94 K; Liquid; Chromatography; x1 = 0
row,activity coefficient,SMILES
1,2.49 ± 0.17,CCCl [chloroethane] + C=C(C)CCO

# Same assay, conditions: 249.95 K; Liquid; Chromatography; x1 = 0
row,activity coefficient,SMILES
1,4.94 ± 0.34,"CC(F)F [1,1-difluoroethane] + C=C(C)CCO"
2,3.26 ± 0.22,C/C=C\C [(Z)-2-butene] + C=C(C)CCO
3,1.28 ± 0.08,COC [dimethyl ether] + C=C(C)CCO

# Same assay, conditions: 249.98 K; Liquid; Chromatography; x1 = 0
row,SMILES,activity coefficient
1,"C=CC=C [1,3-butadiene] + C=CC(C)(C)O",2.43 ± 0.17
2,C=CCC [1-butene] + C=CC(C)(C)O,2.74 ± 0.19
3,C=C(C)C [2-methylpropene] + C=CC(C)(C)O,2.72 ± 0.19
4,C/C=C/C [(E)-2-butene] + C=CC(C)(C)O,2.73 ± 0.19
5,CCCC [butane] + C=CC(C)(C)O,3.3 ± 0.22

# The next lines start with the values.
row,activity coefficient,SMILES
1,3.56 ± 0.24,CC(C)C [2-methylpropane] + C=CC(C)(C)O
2,3.08 ± 0.21,CCC [propane] + C=CC(C)(C)O
3,2.46 ± 0.17,C=CC [propene] + C=CC(C)(C)O

# Same assay, conditions: 250 K; Liquid; Chromatography; x1 = 0
row,activity coefficient,SMILES
1,4.68 ± 0.32,"CC(F)F [1,1-difluoroethane] + C=CC(C)(C)O"
2,2.55 ± 0.17,C/C=C\C [(Z)-2-butene] + C=CC(C)(C)O

# Same assay, conditions: 250.01 K; Liquid; Chromatography; x1 = 0
row,activity coefficient,SMILES
1,2.28 ± 0.16,CCCl [chloroethane] + C=CC(C)(C)O
2,0.62 ± 0.04,COC [dimethyl ether] + C=CC(C)(C)O

# Same assay, conditions: 269.95 K; Liquid; Chromatography; x1 = 0
row,SMILES,activity coefficient
1,"C=CC=C [1,3-butadiene] + C=CC(C)(C)O",2.36 ± 0.16
2,C=CCC [1-butene] + C=CC(C)(C)O,2.65 ± 0.18
3,C=C(C)C [2-methylpropene] + C=CC(C)(C)O,2.61 ± 0.18
4,C/C=C/C [(E)-2-butene] + C=CC(C)(C)O,2.62 ± 0.18
5,C/C=C\C [(Z)-2-butene] + C=C(C)CCO,3.2 ± 0.22
6,CCCC [butane] + C=CC(C)(C)O,3.22 ± 0.22
7,CCCl [chloroethane] + C=C(C)CCO,2.35 ± 0.16
8,COC [dimethyl ether] + C=C(C)CCO,1.23 ± 0.08

# Further lines, results first:
row,activity coefficient,SMILES
1,4.53 ± 0.31,"CC(F)F [1,1-difluoroethane] + C=C(C)CCO"
2,3.42 ± 0.23,CC(C)C [2-methylpropane] + C=CC(C)(C)O
3,2.97 ± 0.2,CCC [propane] + C=CC(C)(C)O
4,2.38 ± 0.16,C=CC [propene] + C=CC(C)(C)O

# Same assay, conditions: 269.96 K; Liquid; Chromatography; x1 = 0
row,activity coefficient,SMILES
1,3.99 ± 0.27,"CC(F)F [1,1-difluoroethane] + C=CC(C)(C)O"
2,2.48 ± 0.17,C/C=C\C [(Z)-2-butene] + C=CC(C)(C)O
3,2.16 ± 0.15,CCCl [chloroethane] + C=CC(C)(C)O
4,0.67 ± 0.05,COC [dimethyl ether] + C=CC(C)(C)O

# Same assay, conditions: 270.04 K; Liquid; Chromatography; x1 = 0
row,activity coefficient,SMILES
1,3.47 ± 0.24,C=CCC [1-butene] + C=C(C)CCO
2,4.98 ± 0.34,CC(C)C [2-methylpropane] + C=C(C)CCO
3,3.41 ± 0.23,C=C(C)C [2-methylpropene] + C=C(C)CCO
4,3.42 ± 0.23,C/C=C/C [(E)-2-butene] + C=C(C)CCO
5,4.61 ± 0.31,CCCC [butane] + C=C(C)CCO
6,4.19 ± 0.29,CCC [propane] + C=C(C)CCO
7,3.04 ± 0.21,C=CC [propene] + C=C(C)CCO

row,SMILES,activity coefficient
1,"C=CC=C [1,3-butadiene] + C=C(C)CCO",2.69 ± 0.18

# Same assay, conditions: 289.9 K; Liquid; Chromatography; x1 = 0
row,activity coefficient,SMILES
1,4.12 ± 0.28,"CC(F)F [1,1-difluoroethane] + C=C(C)CCO"
2,3.08 ± 0.21,C/C=C\C [(Z)-2-butene] + C=C(C)CCO
3,2.32 ± 0.16,CCCl [chloroethane] + C=C(C)CCO
4,1.2 ± 0.08,COC [dimethyl ether] + C=C(C)CCO

# Same assay, conditions: 289.99 K; Liquid; Chromatography; x1 = 0
row,SMILES,activity coefficient
1,"C=CC=C [1,3-butadiene] + C=C(C)CCO",2.65 ± 0.18
2,"C=CC=C [1,3-butadiene] + C=CC(C)(C)O",2.22 ± 0.15
3,C=CCC [1-butene] + C=C(C)CCO,3.4 ± 0.23
4,C=CCC [1-butene] + C=CC(C)(C)O,2.52 ± 0.17
5,C=C(C)C [2-methylpropene] + C=C(C)CCO,3.32 ± 0.23
6,C=C(C)C [2-methylpropene] + C=CC(C)(C)O,2.47 ± 0.17
7,C/C=C/C [(E)-2-butene] + C=C(C)CCO,3.35 ± 0.23
8,C/C=C/C [(E)-2-butene] + C=CC(C)(C)O,2.51 ± 0.17
9,C/C=C\C [(Z)-2-butene] + C=CC(C)(C)O,2.36 ± 0.16
10,CCCC [butane] + C=C(C)CCO,4.41 ± 0.3
11,CCCC [butane] + C=CC(C)(C)O,3.08 ± 0.21
12,CCC [propane] + C=C(C)CCO,4.1 ± 0.28
13,C=CC [propene] + C=C(C)CCO,2.99 ± 0.2

# The next lines start with the values.
row,activity coefficient,SMILES
1,3.39 ± 0.23,"CC(F)F [1,1-difluoroethane] + C=CC(C)(C)O"
2,4.73 ± 0.32,CC(C)C [2-methylpropane] + C=C(C)CCO
3,3.27 ± 0.22,CC(C)C [2-methylpropane] + C=CC(C)(C)O
4,1.96 ± 0.13,CCCl [chloroethane] + C=CC(C)(C)O
5,0.7 ± 0.05,COC [dimethyl ether] + C=CC(C)(C)O
6,2.86 ± 0.19,CCC [propane] + C=CC(C)(C)O
7,2.3 ± 0.16,C=CC [propene] + C=CC(C)(C)O

# Same assay, conditions: 309.99 K; Liquid; Chromatography; x1 = 0
row,SMILES,activity coefficient
1,"C=CC=C [1,3-butadiene] + C=C(C)CCO",2.56 ± 0.17
2,"C=CC=C [1,3-butadiene] + C=CC(C)(C)O",2.05 ± 0.14
3,C=CCC [1-butene] + C=C(C)CCO,3.28 ± 0.22
4,C=CCC [1-butene] + C=CC(C)(C)O,2.37 ± 0.16
5,C=C(C)C [2-methylpropene] + C=C(C)CCO,3.21 ± 0.22
6,C=C(C)C [2-methylpropene] + C=CC(C)(C)O,2.31 ± 0.16
7,C/C=C/C [(E)-2-butene] + C=C(C)CCO,3.27 ± 0.22
8,C/C=C/C [(E)-2-butene] + C=CC(C)(C)O,2.35 ± 0.16
9,C/C=C\C [(Z)-2-butene] + C=C(C)CCO,2.9 ± 0.2
10,C/C=C\C [(Z)-2-butene] + C=CC(C)(C)O,2.23 ± 0.15
11,CCCC [butane] + C=C(C)CCO,4.18 ± 0.28
12,CCCC [butane] + C=CC(C)(C)O,2.87 ± 0.2
13,CCCl [chloroethane] + C=C(C)CCO,2.23 ± 0.15
14,COC [dimethyl ether] + C=C(C)CCO,1.17 ± 0.07
15,CCC [propane] + C=C(C)CCO,3.86 ± 0.26
16,C=CC [propene] + C=C(C)CCO,2.92 ± 0.2

# Results, then the molecule that gave them:
row,activity coefficient,SMILES
1,3.74 ± 0.25,"CC(F)F [1,1-difluoroethane] + C=C(C)CCO"
2,2.89 ± 0.2,"CC(F)F [1,1-difluoroethane] + C=CC(C)(C)O"
3,4.54 ± 0.31,CC(C)C [2-methylpropane] + C=C(C)CCO
4,3.06 ± 0.21,CC(C)C [2-methylpropane] + C=CC(C)(C)O
5,1.69 ± 0.11,CCCl [chloroethane] + C=CC(C)(C)O
6,0.72 ± 0.05,COC [dimethyl ether] + C=CC(C)(C)O
7,2.7 ± 0.18,CCC [propane] + C=CC(C)(C)O
8,2.17 ± 0.15,C=CC [propene] + C=CC(C)(C)O

# Same assay, conditions: 330 K; Liquid; Chromatography; x1 = 0
row,SMILES,activity coefficient
1,"C=CC=C [1,3-butadiene] + C=C(C)CCO",2.45 ± 0.17
2,"C=CC=C [1,3-butadiene] + C=CC(C)(C)O",1.88 ± 0.13
3,C=CCC [1-butene] + C=C(C)CCO,3.13 ± 0.21
4,C=CCC [1-butene] + C=CC(C)(C)O,2.2 ± 0.15
5,C=C(C)C [2-methylpropene] + C=C(C)CCO,3.04 ± 0.21
6,C=C(C)C [2-methylpropene] + C=CC(C)(C)O,2.15 ± 0.15
7,C/C=C/C [(E)-2-butene] + C=C(C)CCO,3.12 ± 0.21
8,C/C=C/C [(E)-2-butene] + C=CC(C)(C)O,2.2 ± 0.15
9,C/C=C\C [(Z)-2-butene] + C=C(C)CCO,2.77 ± 0.19
10,C/C=C\C [(Z)-2-butene] + C=CC(C)(C)O,2.05 ± 0.14
11,CCCC [butane] + C=C(C)CCO,3.99 ± 0.27
12,CCCC [butane] + C=CC(C)(C)O,2.65 ± 0.18
13,CCCl [chloroethane] + C=C(C)CCO,1.99 ± 0.14
14,COC [dimethyl ether] + C=C(C)CCO,1.15 ± 0.07
15,CCC [propane] + C=C(C)CCO,3.7 ± 0.25
16,C=CC [propene] + C=C(C)CCO,2.8 ± 0.19

# Now from value to molecule:
row,activity coefficient,SMILES
1,3.5 ± 0.24,"CC(F)F [1,1-difluoroethane] + C=C(C)CCO"
2,2.47 ± 0.17,"CC(F)F [1,1-difluoroethane] + C=CC(C)(C)O"
3,4.29 ± 0.29,CC(C)C [2-methylpropane] + C=C(C)CCO
4,2.83 ± 0.19,CC(C)C [2-methylpropane] + C=CC(C)(C)O
5,1.56 ± 0.1,CCCl [chloroethane] + C=CC(C)(C)O
6,0.74 ± 0.05,COC [dimethyl ether] + C=CC(C)(C)O
7,2.54 ± 0.17,CCC [propane] + C=CC(C)(C)O
8,2.05 ± 0.14,C=CC [propene] + C=CC(C)(C)O
